What was measured:
MB49 cells [1] = assay: Nuclear and cytoplasmic accumulation of plasmid DNA by PCR; assay type: cell-based, murine; conditions: nuclear and cytoplasmic extracts
Procedure: Nuclear and cytoplasmic fractionation of transfected cells was carried out using gentle lysis with TNE buffer (10 mM Tris, pH (pH8), 1 mM EDTA, 100 mM NaCl, 1% Igepecal) and left on ice for 10 min followed by centrifugation at 7K for 5 min at 4° C. in a microfuge. The supernatant so produced was labelled the cytoplasmic extract and was transferred to a fresh tube. The nuclear extract were prepared by treatment with a proteinase K digestion (100 mM, NaCl, 10 Mm Tris, pH8, 0.5% SDS 25 mM EDTA and 0.1 mg/ml proteinase K) of the pelleted material overnight at 50° C. Nuclear DNA was extracted with phenol/chloroform twice followed by ethanol precipitation. PCR analysis was carried out as described above.
To determine the localization of DNA following transfection with DOTAP and DMBC, nuclear and cytoplasmic extracts were prepared from transfected cells. The presence of DNA in these extracts was determined using PCR. […] The GADPH gene was used to confirm the presence of nuclear DNA in nuclear extracts and the lack of contamination of cytoplasmic fractions with nuclear DNA.

MB49 cells [2] = assay: Proliferation assay ([14C]-thymidine incorporation), toxicity of transfection agents; assay type: cell-based, murine
Procedure: Proliferation was assayed by measuring [^14C]-thymidine incorporation. 1×10^4 cells were plated per well in a 96 well flat-bottomed tissue culture plate (Nunc, Rosklide, Denmark) and transfected at optimal conditions as described above for the appropriate length of time (2 h and 24 h exposure), washed and incubated with fresh RPMI 1640 at 37° C. After 32 h, supernatants were removed, and cells were rinsed with 1×PBS. Triplicate wells were incubated with […], [^14]-thymidine (specific activity 56.5 mCi/mmol; Du Pont, Wilmington, Del., USA) for 16 h. The samples were harvested as described in Zhang, Y. et al. (1997) Int. J. Cancer 71:851-7. [^14C]-thymidine incorporation was expressed as a percentage of the incorporation in control cells, which consisted of untransfected cells. The non-parametric Mann-Whitney U test was used to calculate statistical significance. Probability values of p<0.05 were considered statistically significant.
A cell proliferation assay was used to gauge the toxicity of the transfection agents. Relative toxicity was measured by comparing proliferation in transfected and untransfected cells, 48 h after plating. Cells were exposed to the transfection agents for 2 h and 24 h.

[3] = tested on: urothelial cells of the bladder; assay: Transfection of murine bladders by intravesical instillation
Procedure: 5-7 week old-female C57BL6 mice were anaesthetized; their bladders were catheterized with 24 G i.v. catheter and flushed with 1×PBS. The DMBC and DNA complex were mixed for 15 min as described above. The final mix was made up to a final volume of 465 μl with 1×PBS for easy instillation and introduced intravesically. Transfection exposure times of 15 min, 30 min, 1 h or 2 h were evaluated. At different time points the bladders were flushed with 1×PBS to remove DNA/DMBC complex. The mice were sacrificed 48 h after treatment. Experiments were done in duplicates.
Cryostat sections of 6 μM in thickness were fixed in 1.25% glutaraldehyde for 10 min at 4° C. followed by incubation with X-gal for 4 h at 37° C. and were counterstained with haematoxylin.

MB49 cells [4] = assay: In vitro transfection efficiency of pCMVlacZ, X-gal staining; assay type: cell-based, murine
human tumor xenografts = conditions: used by itself; cited from earlier work

1,2-diacyl-3-trimethylammonium propane [DOTAP]
localization of LacZ plasmid DNA (MB49 cells [1]): only found to be in the cytoplasm | 14C-thymidine incorporation, transfected vs untransfected cells (MB49 cells [2]; 2 h exposure): no difference | cell proliferative capacity vs untransfected cells (MB49 cells [2]; 24 h exposure): reduction in cell proliferative capacity but this was not statistically significant | structure of bladder cells facing the lumen by transmission electron microscopy ([3]; 2 h transfection exposure, vs untransfected control bladder): did not result in any discernible structural difference | transfection of bladder epithelial cells facing the lumen ([3]; intravesical instillation, mice): did not result in efficient transfection

[Ca+2].[Cl-].[Cl-] [Calcium chloride]
ability to transfect MB49 cells (MB49 cells [4]; MB49 cells, pCMVlacZ, 2 h): Neither calcium chloride (0-40 μg) nor DEAE-Dextran (0-2 μg) nor naked DNA could transfect MB49 cells | Transfection efficiency (MB49 cells [4]; MB49 cells, pCMVlacZ, 2 h, percentage of cells stained blue with X-gal): 0%

methyl-β-cyclodextrin
anti-tumor effect (human tumor xenografts): had an anti-tumor effect | transfection with cyclodextrin lacking cholesterol (MB49 cells [4]; methyl-β-cyclodextrin by itself in combination with DOTAP and DNA, murine bladder epithelial cells): no transfection of murine bladder epithelial cells
